# Measurements as given in US20260334439A1, “BCAT2 INHIBITORS” (Agios Pharmaceuticals, Inc., priority 2023, published 2026).
# Molecular target: T1, BCAT2 (Homo sapiens, UniProt O15382)
# T1 sequence (O15382 28-392): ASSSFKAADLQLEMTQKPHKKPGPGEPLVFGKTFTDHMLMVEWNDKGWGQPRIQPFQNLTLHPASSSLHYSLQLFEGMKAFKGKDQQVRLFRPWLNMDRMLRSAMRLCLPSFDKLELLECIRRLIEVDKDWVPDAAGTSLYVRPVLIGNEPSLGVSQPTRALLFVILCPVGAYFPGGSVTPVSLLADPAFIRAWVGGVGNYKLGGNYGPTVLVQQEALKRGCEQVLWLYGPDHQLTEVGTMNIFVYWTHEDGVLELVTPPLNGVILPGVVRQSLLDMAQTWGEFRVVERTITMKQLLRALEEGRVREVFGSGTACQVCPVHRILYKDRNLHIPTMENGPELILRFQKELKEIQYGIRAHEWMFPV
# Experiment: BCAT2 in vitro enzyme inhibition assay (hBCAT2, glutamate dehydrogenase/diaphorase/resazurin coupled fluorescence read)
# Assay type: biochemical
# Conditions: hBCAT2, 1 h preincubation at 25° C., one hour reaction; average where tested multiple times
# Protocol: • 2×Buffer: 200 mM Tris pH 8.0, 300 mM NaCl, 0.1% BSA • 1.67×hBCAT2 Enzyme Mix: 0.33 μg/mL hBCAT2, 1× Buffer • 2.5×Substrate Mix: 460 µM L-leucine, 420 µM α-KetoGlutarate, 10 U/mL glutamate dehydrogenase, 10 mM NAD, […] diaphorase, […] Resazurin
# BCAT2 enzyme stock solution was diluted to prepare a 1.67×hBCAT2 Enzyme Mix. 1 μL of test compound was first added to the reaction wells followed by 30 μL of 1.67×hBCAT2 Enzyme Mix and incubated at room temperature (25° C.) for one hour. Meanwhile the Substrate Mix was prepared. The reaction was initiated by the addition of 20 μL of the 2.5×Substrate Mix, bringing the final reaction mix of all components to 1×. Reactions were quenched after one hour by the addition of 25 μL of 6% SDS and reaction progress was measured via fluorescence read (Ex 540/Em 590).
# Test compounds were prepared at 50×final concentration in DMSO, 1 to 3 dilutions were made for 10 points. The compounds were added to the assay as a 1 to 50 dilution (1 μL in 50 μL) to yield a top assay final concentration of 100 μM, decreasing 3-fold for 10 points. Each compound dilution series test also included an assay max (1 μL DMSO Added in lieu of compound, Full Reaction Components Included) and Min (1 μL DMSO Added in lieu of compound, 30 μl of 1.67×hBCAT2 Enzyme Mix replated by 30 μL of 1×Buffer). All tests were performed in technical duplicate.
# Where a compound was tested multiple times, the average value of the tests is reported.
row,SMILES,IC50 [nM]
1,"CN1C[C@@H](NC(=O)c2cc(Cl)ccc2F)C[C@@H](n2c(-c3ccccc3F)nc3cnc(-c4nc[nH]n4)cc32)C1 [Example 144, 5-chloro-2-fluoro-N-((3S,5R)-5-(2-(2-fluorophenyl)-6-(1H-1,2,4-triazol-3-yl)-1H-imidazo[4,5-c]pyridin-1-yl)-1-methylpiperidin-3-yl)benzamide]",100 to 500
2,"CN1CC(NC(=O)c2cc(F)ccc2F)CC(n2c(-c3ncccc3F)nc3cnc(-c4nc[nH]n4)cc32)C1 (stereo not shown) [Example 146, 2,5-difluoro-N-(5-(2-(3-fluoropyridin-2-yl)-6-(1H-1,2,4-triazol-3-yl)-1H-imidazo[4,5-c]pyridin-1-yl)-1-methylpiperidin-3-yl)benzamide]",100 to 500
3,"CN1CC(NC(=O)c2cc(Cl)ccc2F)CC(n2c(-c3ncccc3F)nc3cnc(-c4nc[nH]n4)cc32)C1 (stereo not shown) [Example 147, 5-chloro-2-fluoro-N-(5-(2-(3-fluoropyridin-2-yl)-6-(1H-1,2,4-triazol-3-yl)-1H-imidazo[4,5-c]pyridin-1-yl)-1-methylpiperidin-3-yl)benzamide]",100 to 500
4,"CCN1C[C@H](NC(=O)c2cc(F)ccn2)C[C@H](n2c(-c3ccccc3F)nc3cnc(-c4nc[nH]n4)cc32)C1 [Example 148, N-((3R,5S)-1-ethyl-5-(2-(2-fluorophenyl)-6-(1H-1,2,4-triazol-3-yl)-1H-imidazo[4,5-c]pyridin-1-yl)piperidin-3-yl)-4-fluoropicolinamide]",< 100
5,"CCN1C[C@@H](NC(=O)c2cc(F)ccn2)C[C@@H](n2c(-c3ccccc3F)nc3cnc(-c4nc[nH]n4)cc32)C1 [Example 149, N-((3S,5R)-1-ethyl-5-(2-(2-fluorophenyl)-6-(1H-1,2,4-triazol-3-yl)-1H-imidazo[4,5-c]pyridin-1-yl)piperidin-3-yl)-4-fluoropicolinamide]",500 to 1000
6,"CN1C[C@@H](NC(=O)c2cc(Cl)ccc2OCCO)C[C@@H](n2c(-c3ccccc3F)nc3cnc(-c4nc[nH]n4)cc32)C1 [Example 151, 5-chloro-N-((3S,5R)-5-(2-(2-fluorophenyl)-6-(1H-1,2,4-triazol-3-yl)-1H-imidazo[4,5-c]pyridin-1-yl)-1-methylpiperidin-3-yl)-2-(2-hydroxyethoxy)benzamide]",100 to 500
7,"CN1C[C@@H](NC(=O)c2cc(F)ccc2F)C[C@@H](n2c(-c3ccccc3F)nc3cnc(-c4nc[nH]n4)cc32)C1 [Example 152, 2,5-difluoro-N-((3S,5R)-5-(2-(2-fluorophenyl)-6-(1H-1,2,4-triazol-3-yl)-1H-imidazo[4,5-c]pyridin-1-yl)-1-methylpiperidin-3-yl)benzamide]",100 to 500
8,"CN1C[C@@H](NC(=O)c2cc(F)ccc2F)C[C@@H](n2c(-c3ccccc3OCCO)nc3cnc(-n4nccn4)cc32)C1 [Example 154, 2,5-difluoro-N-((3S,5R)-5-(2-(2-(2-hydroxyethoxy)phenyl)-6-(2H-1,2,3-triazol-2-yl)-1H-imidazo[4,5-c]pyridin-1-yl)-1-methylpiperidin-3-yl)benzamide]",> 1000
9,"CN1C[C@H](NC(=O)c2cc(F)ccc2F)C[C@H](n2c(-c3ccccc3OCCO)nc3cnc(-n4nccn4)cc32)C1 [Example 155, 2,5-difluoro-N-((3R,5S)-5-(2-(2-(2-hydroxyethoxy)phenyl)-6-(2H-1,2,3-triazol-2-yl)-1H-imidazo[4,5-c]pyridin-1-yl)-1-methylpiperidin-3-yl)benzamide]",< 100
10,"CN1C[C@@H](NC(=O)c2cc(Cl)ccn2)C[C@@H](n2c(-c3ccccc3OCCO)nc3cnc(-n4nccn4)cc32)C1 [Example 156, 4-chloro-N-((3S,5R)-5-(2-(2-(2-hydroxyethoxy)phenyl)-6-(2H-1,2,3-triazol-2-yl)-1H-imidazo[4,5-c]pyridin-1-yl)-1-methylpiperidin-3-yl)picolinamide]",> 1000
11,"CN1C[C@H](NC(=O)c2cc(Cl)ccn2)C[C@H](n2c(-c3ccccc3OCCO)nc3cnc(-n4nccn4)cc32)C1 [Example 157, 4-chloro-N-((3R,5S)-5-(2-(2-(2-hydroxyethoxy)phenyl)-6-(2H-1,2,3-triazol-2-yl)-1H-imidazo[4,5-c]pyridin-1-yl)-1-methylpiperidin-3-yl)picolinamide]",< 100
12,"CN1C[C@H](NC(=O)c2cc(F)ccc2F)C[C@H](n2c(-c3ccccc3OCCO)nc3cnc(-c4ncco4)cc32)C1 [Example 158, 2,5-difluoro-N-((3R,5S)-5-(2-(2-(2-hydroxyethoxy)phenyl)-6-(oxazol-2-yl)-1H-imidazo[4,5-c]pyridin-1-yl)-1-methylpiperidin-3-yl)benzamide]",< 100
13,"CN1C[C@@H](NC(=O)c2cc(F)ccc2F)C[C@@H](n2c(-c3ccccc3OCCO)nc3cnc(-c4ncco4)cc32)C1 [Example 159, 2,5-difluoro-N-((3S,5R)-5-(2-(2-(2-hydroxyethoxy)phenyl)-6-(oxazol-2-yl)-1H-imidazo[4,5-c]pyridin-1-yl)-1-methylpiperidin-3-yl)benzamide]",> 1000

# Now from value to molecule:
row,IC50 [nM],SMILES
1,> 1000,"CN1C[C@@H](NC(=O)c2cc(Cl)ccn2)C[C@@H](n2c(-c3ccccc3OCCO)nc3cnc(-c4ncco4)cc32)C1 [Example 160, 4-chloro-N-((3S,5R)-5-(2-(2-(2-hydroxyethoxy)phenyl)-6-(oxazol-2-yl)-1H-imidazo[4,5-c]pyridin-1-yl)-1-methylpiperidin-3-yl)picolinamide]"
2,< 100,"CN1C[C@H](NC(=O)c2cc(Cl)ccn2)C[C@H](n2c(-c3ccccc3OCCO)nc3cnc(-c4ncco4)cc32)C1 [Example 161, 4-chloro-N-((3R,5S)-5-(2-(2-(2-hydroxyethoxy)phenyl)-6-(oxazol-2-yl)-1H-imidazo[4,5-c]pyridin-1-yl)-1-methylpiperidin-3-yl)picolinamide]"
3,500 to 1000,"CN1C[C@@H](NC(=O)c2cc(F)ccn2)C[C@@H](n2c(-c3ccccc3OCCO)nc3cnc(-c4ncccn4)cc32)C1 [Example 162, 4-fluoro-N-((3S,5R)-5-(2-(2-(2-hydroxyethoxy)phenyl)-6-(pyrimidin-2-yl)-1H-imidazo[4,5-c]pyridin-1-yl)-1-methylpiperidin-3-yl)picolinamide]"
4,< 100,"CN1C[C@H](NC(=O)c2cc(F)ccn2)C[C@H](n2c(-c3ccccc3OCCO)nc3cnc(-c4ncccn4)cc32)C1 [Example 163, 4-fluoro-N-((3R,5S)-5-(2-(2-(2-hydroxyethoxy)phenyl)-6-(pyrimidin-2-yl)-1H-imidazo[4,5-c]pyridin-1-yl)-1-methylpiperidin-3-yl)picolinamide]"
5,< 100,"CN1C[C@H](NC(=O)c2cc(Cl)ccn2)C[C@H](n2c(-c3ccccc3OCCO)nc3cnc(-c4ncccn4)cc32)C1 [Example 164, 4-chloro-N-((3R,5S)-5-(2-(2-(2-hydroxyethoxy)phenyl)-6-(pyrimidin-2-yl)-1H-imidazo[4,5-c]pyridin-1-yl)-1-methylpiperidin-3-yl)picolinamide]"
6,< 100,"CN1C[C@@H](NC(=O)c2cc(Cl)ccn2)C[C@@H](n2c(-c3ccccc3OCCO)nc3cnc(-c4ncccn4)cc32)C1 [Example 165, 4-chloro-N-((3S,5R)-5-(2-(2-(2-hydroxyethoxy)phenyl)-6-(pyrimidin-2-yl)-1H-imidazo[4,5-c]pyridin-1-yl)-1-methylpiperidin-3-yl)picolinamide]"
7,< 100,"CC(=O)N1C[C@@H](NC(=O)c2cc(F)ccn2)C[C@@H](n2c(-c3ccccc3F)nc3cnc(-c4nc(C)co4)cc32)C1 [Example 166, N-((3S,5R)-1-acetyl-5-(2-(2-fluorophenyl)-6-(4-methyloxazol-2-yl)-1H-imidazo[4,5-c]pyridin-1-yl)piperidin-3-yl)-4-fluoropicolinamide]"
8,< 100,"Cc1coc(-c2cc3c(cn2)nc(-c2ccccc2F)n3[C@@H]2CCC[C@H](N3Cc4ccc(F)cc4C3=O)[C@H]2O)n1 [Example 193, 6-fluoro-2-((1S,2S,3R)-3-(2-(2-fluorophenyl)-6-(4-methyloxazol-2-yl)-1H-imidazo[4,5-c]pyridin-1-yl)-2-hydroxycyclohexyl)isoindolin-1-one]"
9,< 100,"NC1CC(N2Cc3ccc(F)cc3C2=O)CC(n2c(-c3ccccc3F)nc3cnc(-c4nc[nH]n4)cc32)C1 (stereo not shown) [Example 196, 2-(3-amino-5-(2-(2-fluorophenyl)-6-(1H-1,2,4-triazol-3-yl)-1H-imidazo[4,5-c]pyridin-1-yl)cyclohexyl)-6-fluoroisoindolin-1-one]"
